Source: patent US4765972A (priority 1986, dated 1988)

How the values were obtained:
microtubule = experiment: In vitro microtubule assembly; type: biochemical; details: both drugs at similar concentrations
tubulin [1] = experiment: Tubulin-dependent GTP hydrolysis; type: biochemical; details: both drugs at similar concentrations
[2] = system: P388 murine leukemic cells; experiment: Growth inhibition of exponentially growing P388 cells; type: cell-based; details: Mus musculus, P388, 72 h
Description: Thus, NABV is ideal for probing intracellular Vinca alkaloid interactions because it retains the known biochemical and pharmacological properties of this class of drugs.

P388 leukemic cells = experiment: Ultrastructural alterations in P388 cells; type: cell-based, murine
tubulin [3] = experiment: Tubulin aggregation; type: biochemical; details: both drugs at similar concentrations
[4] = system: MCF-7 human breast tumor cells; experiment: Ultrastructural alterations in MCF-7 cells; type: cell-based
[5] = system: calf brain macromolecular components; experiment: Control irradiation of calf brain homogenate with ^3 H-vinblastine; type: binding; details: standard photolabelling conditions; 50 nM ^3 H-vinblastine
Procedure: The standard photolabelling mixture used contained 50 nM ^3 H-NABV (50.6 Ci/mmol), 4% dimethylsulfoxide, […] potassium phosphate buffer, pH 7.0, and 2 mg/ml of tissue homogenate or high speed pellet or supernatant fractions in a final volume of 0.05 ml in polyvinylchloride V-microtiter wells (Dynatech Labs, Inc., Alexandria, VA) in a 25° C. water bath. Photolabelling mixtures were incubated for 15 minutes at 25° C. before photolysis. Photoactivation was performed for 10-20 minutes with a UV light equipped with two 15 W self-filtering 302 nm lamps (Model xx-15, Ultra-Violet Products, Inc., San Gabriel, CA), placed 3.4 cm above the photolabelling mixture. […] In a control experiment, brain homogenate was irradiated in the presence of 50 nM ^3 H-vinblastine (10.7 Ci/mmol; Amersham Corp., Arlington Heights, IL). Photoactivated samples were immediately processed for SDS-PAGE or frozen at -70° C.
When homogenate was incubated with ^3 H-NABV in the absence of UV light for 30 minutes, no radioactivity was found in subsequent SDS-PAGE gel slices above the ambient background level, except for excess 3H-NABV which migrated near the tracking dye front. Similar results were obtained after photoactivating ^3 H-NABV in the absence of brain homogenate which was then added prior to performing SDS-PAGE and gel slice analysis.

Row | SMILES | effect on in vitro microtubule assembly (microtubule) | effect on tubulin-dependent GTP hydrolysis (tubulin [1]) | IC50 [2] | ultrastructural alterations (microtubular paracrystals, mitotic arrest, multinucleated cells) (P388 leukemic cells) | effect on tubulin aggregation (tubulin [3]) | ultrastructural alterations (microtubular paracrystals, mitotic arrest, multinucleated cells) [4] | radiolabel incorporation into calf brain macromolecular components [5]
1 | CCC1(O)CC2CN(CCc3c([nH]c4ccccc34)C(C(=O)OC)(c3cc4c(cc3OC)N(C)C3C(O)(C(=O)NCCNC(=O)c5ccc(N=[N+]=[N-])cc5)C(O)C5(CC)C=CCN6CCC43C65)C2)C1 (stereo not drawn) [NABV, N-(p-azidobenzoyl)-N'-beta-aminoethylvindesine] | inhibit in vitro microtubule assembly | inhibit tubulin-dependent GTP hydrolysis | 1.1 nM | resembles those caused by vinblastine | induce tubulin aggregation | resembles those caused by vinblastine | –
2 | CC[C@]1(O)C[C@@H]2CN(CCc3c([nH]c4ccccc34)[C@@](C(=O)OC)(c3cc4c(cc3OC)N(C)[C@H]3[C@@](O)(C(=O)OC)[C@H](OC(C)=O)[C@]5(CC)C=CCN6CC[C@]43[C@@H]65)C2)C1 [^3 H-vinblastine] | – | – | – | – | – | – | no radiolabel incorporation
